Test results as given in ChEMBL document CHEMBL1795326, “Pharmacophore based virtual screening, molecular docking studies to design potent heat shock protein 90 inhibitors” (Eur J Med Chem, 2011).

experiment: Inhibition of HSP90

Which IC50 does the source give for `Cc1nc(N)nc2c1/C(=N/O)C[C@@H](c1ccc(F)cc1-c1cccnc1)C2` here?
The IC50 was 30 µM.

For `CCOC(=O)NCc1ccc(-n2cnnc2-c2cc(C(C)C)c(O)cc2O)cc1`, which IC50 is on record?
The IC50 was 40 µM.

Which IC50 does the source give for `Oc1ccc2c(-c3cc(Br)c(O)cc3O)noc2c1` here?
The IC50 was 190 µM.

With `Cc1ccccc1[C@H]1CCCN1C(=O)c1ccc(O)cc1O` as the compound, how does the IC50 read?
The IC50 was 60 µM.
